Results as given in US11236102B2, “Oxabicycloheptane prodrugs” (Lixte Biotechnology, Inc., priority 2015, dated 2022).
Values joined by “and” are separate entries in the source; they are usually repeats but may differ in a detail not shown here. Identical values can stand only once. Like-named read-outs stand apart in the source and are kept apart here.

Assay: Pharmacokinetic study of 151 (iv, oral) in SD rats: 151 and 100 in plasma
Type: in vivo
Conditions: for AUC(0-t): read-out: AUC0-t of 151; for AUC(0-inf): read-out: AUC0-∞ of 151
Description: The absolute bioavailability was evaluated.
To each sample, 160 μL of acetonitrile were added.
The mass spectrometer was operated in the positive mode.
Quantification was achieved by the external standard method.
Calibration Curve for Plasma Samples
LB100 concentrations of the LB151 plasma samples were also measured and pharmacokinetic parameters were calculated.

[1] = 151 IV 1.0 mg/kg, SD rats, individual rats, 1 mg/kg
[2] = male, Sprague-Dawley, rat, in vivo, iv, 1 mg/kg, plasma, 151 IV 1.0 mg/kg, SD rats, individual rats
[3] = male, Sprague-Dawley, rat, in vivo, iv, 1 mg/kg, plasma, 151 IV 1.0 mg/kg, SD rats, mean
[4] = male, Sprague-Dawley, rat, in vivo, po, 10 mg/kg, plasma, 151 PO 10 mg/kg, SD rats, individual rats
[5] = male, Sprague-Dawley, rat, in vivo, po, 10 mg/kg, plasma, 151 PO 10 mg/kg, SD rats, mean
[6] = plasma, 151 IV 1.0 mg/kg, SD rats, individual rats, 1 mg/kg
[7] = plasma, 151 PO 10 mg/kg, SD rats, individual rats, 10 mg/kg

COC(=O)C1C2CCC(O2)C1C(=O)N1CCN(C)CC1 (stereo not shown) [Compound 151]
151 plasma concentration (151 IV 1.0 mg/kg, SD rats, 0.083 h, individual rats, 1 mg/kg): 1301 ng/mL
151 plasma concentration (151 IV 1.0 mg/kg, SD rats, 0.250 h, individual rats, 1 mg/kg): 949 ng/mL
151 plasma concentration (151 IV 1.0 mg/kg, SD rats, 0.50 h, individual rats, 1 mg/kg): 607 ng/mL
151 plasma concentration (151 IV 1.0 mg/kg, SD rats, 1.0 h, individual rats, 1 mg/kg): 314 ng/mL
151 plasma concentration (151 IV 1.0 mg/kg, SD rats, 2.0 h, individual rats, 1 mg/kg): 103 ng/mL
151 plasma concentration (151 IV 1.0 mg/kg, SD rats, 3.0 h, individual rats, 1 mg/kg): 28.1 ng/mL
151 plasma concentration (151 IV 1.0 mg/kg, SD rats, 5.0 h, individual rats, 1 mg/kg): 9.75 ng/mL and 3.63 ng/mL
151 plasma concentration (151 IV 1.0 mg/kg, SD rats, 7.0 h, individual rats, 1 mg/kg): 12.2 ng/mL and 1.83 ng/mL
151 plasma concentration (151 IV 1.0 mg/kg, SD rats, 9.0 h, individual rats, 1 mg/kg): BLQ
151 plasma concentration (151 IV 1.0 mg/kg, SD rats, 24 h, individual rats): BLQ
CL of 151 [1]: 15.9 mL/min/kg
Vss of 151 [1]: 0.775 L/kg
F of 151 (151 PO 10 mg/kg vs IV 1.0 mg/kg, SD rats, mean, based on AUC0-∞): 54.6%
151 plasma concentration (151 PO 10 mg/kg, SD rats, 0.25 h, individual rats, 10 mg/kg): 2029 ng/mL and 2731 ng/mL
151 plasma concentration (151 PO 10 mg/kg, SD rats, 0.50 h, individual rats, 10 mg/kg): 3934 ng/mL and 3343 ng/mL
151 plasma concentration (151 PO 10 mg/kg, SD rats, 1.0 h, individual rats, 10 mg/kg): 2581 ng/mL and 2538 ng/mL
151 plasma concentration (151 PO 10 mg/kg, SD rats, 2.0 h, individual rats, 10 mg/kg): 1237 ng/mL and 1582 ng/mL
151 plasma concentration (151 PO 10 mg/kg, SD rats, 3.0 h, individual rats, 10 mg/kg): 660 ng/mL and 794 ng/mL
151 plasma concentration (151 PO 10 mg/kg, SD rats, 5.0 h, individual rats, 10 mg/kg): 99.4 ng/mL and 192 ng/mL
151 plasma concentration (151 PO 10 mg/kg, SD rats, 7.0 h, individual rats, 10 mg/kg): 42.6 ng/mL and 20.7 ng/mL and 68.0 ng/mL
151 plasma concentration (151 PO 10 mg/kg, SD rats, 9.0 h, individual rats, 10 mg/kg): 38.2 ng/mL and 66.1 ng/mL
151 plasma concentration (151 PO 10 mg/kg, SD rats, 24 h, individual rats): BLQ
time of peak plasma concentration (151 oral 10 mg/kg, SD rats (n=3)): 0.5 h
concentration at 0.083 h (male, Sprague-Dawley, rat, in vivo, iv, 1 mg/kg, 151 IV 1.0 mg/kg, SD rats, 0.083 h, individual rats): 1680 ng/mL
concentration at 0.083 h (male, Sprague-Dawley, rat, in vivo, iv, 1 mg/kg, 151 IV 1.0 mg/kg, SD rats, 0.083 h, mean): 1490 ng/mL
concentration at 0.25 h (male, Sprague-Dawley, rat, in vivo, iv, 1 mg/kg, 151 IV 1.0 mg/kg, SD rats, 0.250 h, individual rats): 1160 ng/mL
concentration at 0.25 h (male, Sprague-Dawley, rat, in vivo, iv, 1 mg/kg, 151 IV 1.0 mg/kg, SD rats, 0.250 h, mean): 1060 ng/mL
concentration at 0.5 h (male, Sprague-Dawley, rat, in vivo, iv, 1 mg/kg, 151 IV 1.0 mg/kg, SD rats, 0.50 h, individual rats): 760 ng/mL
concentration at 0.5 h (male, Sprague-Dawley, rat, in vivo, iv, 1 mg/kg, 151 IV 1.0 mg/kg, SD rats, 0.50 h, mean): 683 ng/mL
concentration at 1 h (male, Sprague-Dawley, rat, in vivo, iv, 1 mg/kg, 151 IV 1.0 mg/kg, SD rats, 1.0 h, individual rats): 381 ng/mL
concentration at 1 h (male, Sprague-Dawley, rat, in vivo, iv, 1 mg/kg, 151 IV 1.0 mg/kg, SD rats, 1.0 h, mean): 348 ng/mL
concentration at 2 h (male, Sprague-Dawley, rat, in vivo, iv, 1 mg/kg, 151 IV 1.0 mg/kg, SD rats, 2.0 h, individual rats): 95.8 ng/mL
concentration at 2 h (male, Sprague-Dawley, rat, in vivo, iv, 1 mg/kg, 151 IV 1.0 mg/kg, SD rats, 2.0 h, mean): 99.6 ng/mL
concentration at 3 h (male, Sprague-Dawley, rat, in vivo, iv, 1 mg/kg, 151 IV 1.0 mg/kg, SD rats, 3.0 h, individual rats): 39.6 ng/mL
concentration at 3 h (male, Sprague-Dawley, rat, in vivo, iv, 1 mg/kg, 151 IV 1.0 mg/kg, SD rats, 3.0 h, mean): 33.8 ng/mL
concentration at 5 h (male, Sprague-Dawley, rat, in vivo, iv, 1 mg/kg, 151 IV 1.0 mg/kg, SD rats, 5.0 h, mean): 6.69 ng/mL
concentration at 7 h (male, Sprague-Dawley, rat, in vivo, iv, 1 mg/kg, 151 IV 1.0 mg/kg, SD rats, 7.0 h, mean): 7.02 ng/mL
concentration at 9 h (male, Sprague-Dawley, rat, in vivo, iv, 1 mg/kg, 151 IV 1.0 mg/kg, SD rats, 9.0 h, individual rats): 2.01 ng/mL
concentration at 9 h (male, Sprague-Dawley, rat, in vivo, iv, 1 mg/kg, 151 IV 1.0 mg/kg, SD rats, 9.0 h, mean): 1 ng/mL
clearance (male, Sprague-Dawley, rat, in vivo, iv, 1 mg/kg, 151 IV 1.0 mg/kg, SD rats, individual rats, read-out: CL of 151 (converted)): 12.7 mL/min/kg
Vd (male, Sprague-Dawley, rat, in vivo, iv, 1 mg/kg, 151 IV 1.0 mg/kg, SD rats, individual rats, read-out: Vss of 151): 0.696 L/kg
clearance (male, Sprague-Dawley, rat, in vivo, iv, 1 mg/kg, 151 IV 1.0 mg/kg, SD rats, mean, read-out: CL of 151 (converted)): 14.3 mL/min/kg
Vd (male, Sprague-Dawley, rat, in vivo, iv, 1 mg/kg, 151 IV 1.0 mg/kg, SD rats, mean, read-out: Vss of 151): 0.736 L/kg
half-life (male, Sprague-Dawley, rat, in vivo, iv, 1 mg/kg, 151 iv 1.0 mg/kg (n=2), read-out: elimination half-life (converted)): 0.89 h
clearance (male, Sprague-Dawley, rat, in vivo, iv, 1 mg/kg, 151 iv 1.0 mg/kg (n=2), read-out: mean clearance from rat plasma (converted)): 14.3 mL/min/kg
Vd (male, Sprague-Dawley, rat, in vivo, iv, 1 mg/kg, 151 iv 1.0 mg/kg (n=2), read-out: volume of distribution at steady state): 0.736 L/kg
MRT [2]: 0.91 h
AUC(0-t) [2]: 1290 ng·h/mL
AUC(0-inf) [2]: 1310 ng·h/mL
half-life (male, Sprague-Dawley, rat, in vivo, iv, 1 mg/kg, plasma, 151 IV 1.0 mg/kg, SD rats, individual rats, read-out: T1/2 of 151 (converted)): 0.91 h
MRT [3]: 0.86 h
AUC(0-t) [3]: 1170 ng·h/mL
AUC(0-inf) [3]: 1180 ng·h/mL
half-life (male, Sprague-Dawley, rat, in vivo, iv, 1 mg/kg, plasma, 151 IV 1.0 mg/kg, SD rats, mean, read-out: T1/2 of 151 (converted)): 0.89 h
concentration at 0.25 h (male, Sprague-Dawley, rat, in vivo, po, 10 mg/kg, 151 PO 10 mg/kg, SD rats, 0.25 h, individual rats): 2230 ng/mL
concentration at 0.25 h (male, Sprague-Dawley, rat, in vivo, po, 10 mg/kg, 151 PO 10 mg/kg, SD rats, 0.25 h, mean): 2330 ng/mL
concentration at 0.5 h (male, Sprague-Dawley, rat, in vivo, po, 10 mg/kg, 151 PO 10 mg/kg, SD rats, 0.50 h, individual rats): 2450 ng/mL
concentration at 0.5 h (male, Sprague-Dawley, rat, in vivo, po, 10 mg/kg, 151 PO 10 mg/kg, SD rats, 0.50 h, mean): 3240 ng/mL
concentration at 1 h (male, Sprague-Dawley, rat, in vivo, po, 10 mg/kg, 151 PO 10 mg/kg, SD rats, 1.0 h, individual rats): 2200 ng/mL
concentration at 1 h (male, Sprague-Dawley, rat, in vivo, po, 10 mg/kg, 151 PO 10 mg/kg, SD rats, 1.0 h, mean): 2440 ng/mL
concentration at 2 h (male, Sprague-Dawley, rat, in vivo, po, 10 mg/kg, 151 PO 10 mg/kg, SD rats, 2.0 h, individual rats): 1100 ng/mL
concentration at 2 h (male, Sprague-Dawley, rat, in vivo, po, 10 mg/kg, 151 PO 10 mg/kg, SD rats, 2.0 h, mean): 1310 ng/mL
concentration at 3 h (male, Sprague-Dawley, rat, in vivo, po, 10 mg/kg, 151 PO 10 mg/kg, SD rats, 3.0 h, individual rats): 521 ng/mL
concentration at 3 h (male, Sprague-Dawley, rat, in vivo, po, 10 mg/kg, 151 PO 10 mg/kg, SD rats, 3.0 h, mean): 658 ng/mL
concentration at 5 h (male, Sprague-Dawley, rat, in vivo, po, 10 mg/kg, 151 PO 10 mg/kg, SD rats, 5.0 h, individual rats): 125 ng/mL
concentration at 5 h (male, Sprague-Dawley, rat, in vivo, po, 10 mg/kg, 151 PO 10 mg/kg, SD rats, 5.0 h, mean): 139 ng/mL
concentration at 7 h (male, Sprague-Dawley, rat, in vivo, po, 10 mg/kg, 151 PO 10 mg/kg, SD rats, 7.0 h, mean): 43.8 ng/mL
concentration at 9 h (male, Sprague-Dawley, rat, in vivo, po, 10 mg/kg, 151 PO 10 mg/kg, SD rats, 9.0 h, individual rats): 52.1 ng/mL
concentration at 9 h (male, Sprague-Dawley, rat, in vivo, po, 10 mg/kg, 151 PO 10 mg/kg, SD rats, 9.0 h, mean): 52.1 ng/mL
half-life (male, Sprague-Dawley, rat, in vivo, po, 10 mg/kg, 151 oral 10 mg/kg, SD rats (n=3), read-out: mean half-life (converted)): 1.26 h
Cmax [4]: 2450 ng/mL
MRT [4]: 1.86 h
AUC(0-t) [4]: 5400 ng·h/mL
AUC(0-inf) [4]: 5500 ng·h/mL
half-life (male, Sprague-Dawley, rat, in vivo, po, 10 mg/kg, plasma, 151 PO 10 mg/kg, SD rats, individual rats, read-out: T1/2 of 151 (converted)): 1.33 h
Cmax [5]: 3240 ng/mL
MRT [5]: 1.81 h
AUC(0-t) [5]: 6340 ng·h/mL
AUC(0-inf) [5]: 6440 ng·h/mL
half-life (male, Sprague-Dawley, rat, in vivo, po, 10 mg/kg, plasma, 151 PO 10 mg/kg, SD rats, mean, read-out: T1/2 of 151 (converted)): 1.26 h
bioavailability (male, Sprague-Dawley, rat, in vivo, 151 oral 10 mg/kg, based on AUC0-∞, read-out: absolute bioavailability (F)): 54.6%
Tmax (male, Sprague-Dawley, rat, in vivo, plasma, 151 PO 10 mg/kg, SD rats, mean): 0.5 h
AUC0-t of 151 [6]: 1045 ng·h/mL
AUC0-∞ of 151 [6]: 1047 ng·h/mL
MRT of 151 [6]: 0.81 h
T1/2 of 151 [6]: 0.87 h
AUC0-t of 151 [7]: 6423 ng·h/mL and 7199 ng·h/mL
AUC0-∞ of 151 [7]: 6484 ng·h/mL and 7328 ng·h/mL
Cmax of 151 [7]: 3934 ng/mL and 3343 ng/mL
MRT of 151 [7]: 1.62 h and 1.95 h
T1/2 of 151 [7]: 1.10 h and 1.35 h
